Values joined by “and” are separate entries in the source; they are usually repeats but may differ in a detail not shown here. Equal values may be shown once. After the bases stand the sugars from the 5' end (letter, count) and the backbone: PS all phosphorothioate, else s phosphorothioate and o phosphodiester by linkage. Methylation of C is not given here. e = 2'-O-(2-methoxyethyl) (MOE); k = constrained ethyl (cEt); d = 2'-deoxy (DNA)
What was measured:
[1] = target: SOD1; details: ASO
[2] = target: MALAT1; details: ASO, A431, 0.005 µM

| Sequence | target mRNA inhibition [2] | further results |
| --- | --- | --- |
| AAATACAGGTCATTGAA (sugars e2 k2 d8 k2 e3, PS) |  | target mRNA inhibition ([1]; HepG2, 5 µM): 28% |
| AAATACAGGTCATTGAA (sugars e3 k2 d7 k2 e3, PS) |  | target mRNA inhibition ([1]; HepG2, 3 µM): 2% |
| AAATCTTCCAAGTGATC (sugars e3 k2 d7 k2 e3, PS) |  | target mRNA inhibition ([1]; HepG2, 3 µM): 4% |
| TTACCTTGAAACCGAT (sugars k3 d10 k3, PS) | 31% |  |
| TTACTGGTTTAAGTTG (sugars k3 d10 k3, PS) | 24% |  |
| TTATAATAGAGCTACT (sugars k3 d10 k3, PS) | 4% |  |
| TTATAGACGGAGAACA (sugars k3 d10 k3, PS) | 8% |  |
| TTATAGCTTGACAAGC (sugars k3 d10 k3, PS) | 37% |  |
| TTATCAATTCACCAAG (sugars k3 d10 k3, PS) | 25% |  |
| TTATCTGTTAACAGCT (sugars k3 d10 k3, PS) | 31% |  |
| TTATGCTTATTCCCCA (sugars k3 d10 k3, PS) | 75% and 85% |  |
| TTATGGATCATGCCCA (sugars k3 d10 k3, PS) | 28% |  |
| TTATTCCCCAATGGAG (sugars k3 d10 k3, PS) | 18% |  |
| TTCAACTGGAAGCTCC (sugars k3 d10 k3, PS) | 58% and 57% |  |
| TTCATTACCCCAACTA (sugars k3 d10 k3, PS) | 42% |  |
| TTCCGCTCAAATCCTG (sugars k3 d10 k3, PS) | 35% |  |
| TTCGCCTTCCCGTACT (sugars k3 d10 k3, PS) | 63% |  |
| TTCTAGCTTCAAGTAT (sugars k3 d10 k3, PS) | 25% |  |
| TTCTGAACCGGAGCAG (sugars k3 d10 k3, PS) | 23% |  |
| TTCTGATAACGAAGAG (sugars k3 d10 k3, PS) | 8% |  |
| TTGAACCCCGTCCTGG (sugars k3 d10 k3, PS) | 12% |  |

| Sequence | target mRNA inhibition [2] | further results |
| --- | --- | --- |
| TTGAAGCATACCTTAA (sugars k3 d10 k3, PS) | 28% |  |
| TTGAGATGGACATTGC (sugars k3 d10 k3, PS) | 87% and 72% |  |
| TTGATCCCAACTCATC (sugars k3 d10 k3, PS) | 33% |  |
| TTGCCCCAACACTGAA (sugars k3 d10 k3, PS) | 7% |  |
| TTGCCCGCTTTCCCCC (sugars k3 d10 k3, PS) | 19% |  |
| TTGCCGACCTCACGGA (sugars k3 d10 k3, PS) | 30% |  |
| TTGCTCGCTTGCTCCT (sugars k3 d10 k3, PS) | 40% |  |
| TTGGTTACCAATAATT (sugars k3 d10 k3, PS) | 24% |  |
| TTGTGGTTATAGCTTG (sugars k3 d10 k3, PS) | 68% and 93% |  |
| TTGTTCGAGAAATCGG (sugars k3 d10 k3, PS) | 5% |  |
| TTTAAAAAGGCTCGAT (sugars k3 d10 k3, PS) | 28% |  |
| TTTAAAAGATCGCCTT (sugars k3 d10 k3, PS) | 50% |  |
| TTTAAACGGGTCATCA (sugars k3 d10 k3, PS) | 10% |  |
| TTTAAGGTTGCATCTG (sugars k3 d10 k3, PS) | 41% |  |
| TTTACTTGCCAACAGA (sugars k3 d10 k3, PS) | 27% |  |
| TTTACTTTCCATTACG (sugars k3 d10 k3, PS) | 16% |  |
| TTTATAGACCCCTGAC (sugars k3 d10 k3, PS) | 22% |  |
| TTTCCCCAATCAAGAT (sugars k3 d10 k3, PS) | -4% |  |
| TTTGGCATATGCAGAT (sugars k3 d10 k3, PS) | 24% |  |
| TTTTACCAACCACTCG (sugars k3 d10 k3, PS) | 31% |  |
| TTTTAGTCACTGGATA (sugars k3 d10 k3, PS) | 45% |  |

From the OligoGym collection
